This assay concerns Human immunodeficiency virus 1. In words: Antiviral activity against HIV-1 IIIB infected in human MT4 cells assessed as inhibition of viral replication measured after 5 days by Celltiter-Glo assay. Format: functional, organism-based. The settings on record: Human immunodeficiency virus 1, IIIB, MT4, 120 h. (In ATP-based viability assays light output follows the ATP content of the culture.)
Broadly, the EC50 is the concentration giving half of the maximal effect. For the compound `COCc1nc2nc([C@H](Cc3cc(F)cc(F)c3)NC(=O)Cn3nc(C(F)(F)F)c4c3C(F)(F)[C@@H]3C[C@H]43)c(-c3ccc(Cl)c4c(NS(C)(=O)=O)nn(C)c34)cc2[nH]1`, the EC50 turned out to be 2.1 nM. The value for `Cc1nc2nc([C@H](Cc3cc(F)cc(F)c3)NC(=O)Cn3nc(C(F)F)c4c3C(F)(F)[C@@H]3C[C@H]43)c(-c3ccc(Cl)c4c(NS(C)(=O)=O)nn(C)c34)cc2[nH]1` was 1.6 nM; that for `Cc1nc2nc([C@H](Cc3cc(F)cc(F)c3)NC(=O)Cn3nc(C(F)(F)F)c4c3C(F)(F)[C@@H]3C[C@H]43)c(-c3ccc(Cl)c4c(NS(C)(=O)=O)nn(C)c34)cc2[nH]1` was 2.4 nM.

`Cn1cc(-c2nc3nc([C@H](Cc4cc(F)cc(F)c4)NC(=O)Cn4nc(C(F)F)c5c4C(F)(F)[C@@H]4C[C@H]54)c(-c4ccc(Cl)c5c(NS(C)(=O)=O)nn(C)c45)cc3[nH]2)cn1`: the EC50 is 3 nM.

Take `Cn1nc(N)c2cccc(-c3cc4sc(N5CC(C)(O)C5)nc4nc3[C@H](Cc3cc(F)cc(F)c3)NC(=O)Cn3nc(C(F)F)c4c3C3CC3CC4)c21` (stereo partly specified): the EC50 turned out to be 1.3 nM. Turning to `COCc1nc2nc([C@H](Cc3cc(F)cc(F)c3)NC(=O)Cn3nc(C(F)F)c4c3C(F)(F)[C@@H]3C[C@H]43)c(-c3ccc(Cl)c4c(NS(C)(=O)=O)nn(C)c34)cc2[nH]1`, the EC50 worked out at 1.5 nM.

The values are drawn from ChEMBL document CHEMBL5154886, “Novel Capsid Inhibitors for Treating HIV Infection” (ACS Med Chem Lett, 2022).
